Data on 16 compounds can be found in PubChem BioAssay (NCI).

Several values for one entry are separate records, joined by “and”; a condition that tells them apart may be missing. Identical values can stand only once.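 Step 1: Grow cells in 96-well plates. Step 2: Expose to compound for 48 hours at 5 concentrations. Step 3: Interpolate endpoints linearly; if unreached, use highest concentration. At the GI50, growth is halved. The concentration for full growth arrest is given as TGI.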 Bounds are passed on as bounds.

Among the test systems are CAKI-1 renal; T-47D breast; SK-MEL-2 melanoma; ACHN renal; MOLT-4 leukemia; MDA-MB-435; DU-145 prostate; EKVX NSCLC; K-562 leukemia.
Holding throughout (assay): growth of human tumour cells (NCI), 48 h

With `CC1C/C(=C\c2ccc(O)c(O)c2)C(=O)/C(=C/c2ccc(O)c(O)c2)C1` (stereo not given), the TGI in the experiment with CAKI-1 renal is 18.1 µM; in the experiment on T-47D breast it was 27.8 µM; with SK-MEL-2 melanoma it was 34.8 µM; in the experiment with ACHN renal, 21.6 µM; in the experiment on MOLT-4 leukemia, 20.3 µM; in the experiment with MDA-MB-435 it was 9.74 µM. For the same compound, the results for the TGI in the experiment with DU-145 prostate, with EKVX NSCLC and in the experiment with K-562 leukemia were 20.8 µM, 30.1 µM and 27.4 µM, respectively.

As for `COc1ccc(C2=C(N)c3cc(OC)ccc3C2=O)cc1`, the TGI with CAKI-1 renal, in the experiment on T-47D breast, with SK-MEL-2 melanoma, in the experiment with ACHN renal, in the experiment on MOLT-4 leukemia and with MDA-MB-435 was more than 100 µM in each case. In addition, the TGI with DU-145 prostate and in the experiment on EKVX NSCLC was more than 100 µM in each case.

In the case of `O=C(Nc1ccccc1C(=O)O)C(=Cc1ccccc1O)NC(=O)c1ccccc1`, the TGI in the experiment on CAKI-1 renal, in the experiment on T-47D breast, with SK-MEL-2 melanoma, in the experiment with ACHN renal, in the experiment on MOLT-4 leukemia and in the experiment with MDA-MB-435 was more than 100 µM throughout. In addition, the TGI in the experiment on DU-145 prostate, with EKVX NSCLC and with K-562 leukemia was more than 100 µM each time.

As to `CCOC(=O)CCC1(C(=O)O[C@@H]2C[C@H](C)CC[C@H]2C(C)C)CCCCC1=O` (stereo not given in full), the TGI in the experiment on CAKI-1 renal, with T-47D breast, in the experiment on SK-MEL-2 melanoma, with ACHN renal, with MOLT-4 leukemia and in the experiment with MDA-MB-435 was more than 100 µM in each case. For the same compound, the TGI in the experiment with DU-145 prostate, with EKVX NSCLC and in the experiment with K-562 leukemia was more than 100 µM in each case.

On to `CCCCCC(=O)OCC1(CO)C/C(=C/CC(C(C)C)C(C)C)C(=O)O1` (stereo not given), for which the TGI was 66.8 µM in the experiment on CAKI-1 renal; more than 75 µM in the experiment with T-47D breast; more than 75 µM in the experiment on SK-MEL-2 melanoma; more than 75 µM with ACHN renal; more than 75 µM in the experiment on MDA-MB-435; more than 75 µM in the experiment with DU-145 prostate. This compound also returned a TGI in the experiment with EKVX NSCLC of more than 75 µM.

`CC1=NNC(N)=N/C1=C\C(Sc1ccc(Cl)cc1)c1ccc(Cl)cc1Cl` (stereo not given): the TGI in the experiment with CAKI-1 renal was more than 67.1 µM; with T-47D breast, 38.8 µM; in the experiment on SK-MEL-2 melanoma it was 38 µM; in the experiment on ACHN renal it was 29.1 µM; in the experiment with MOLT-4 leukemia it was more than 100 µM; in the experiment with MDA-MB-435, more than 76.6 µM. The TGI in the experiment with DU-145 prostate worked out at 61.7 µM; in the experiment on EKVX NSCLC it was 32.7 µM; in the experiment on K-562 leukemia, 56.3 µM.

Regarding H-KIFKKFKTIIKKVWRIFGRF-NH2, the GI50 in the experiment with SK-MEL-2 melanoma was 2630 nM; in the experiment on MOLT-4 leukemia, 3.13 µM; with K-562 leukemia, 2820 nM. Besides, the TGI with SK-MEL-2 melanoma was 6.23 µM; in the experiment with MOLT-4 leukemia, more than 100 µM; in the experiment on K-562 leukemia it was more than 100 µM.

Regarding `O=C(O)CCC(NC(=O)/C(=C/c1ccccc1)NC(=O)c1ccccc1)C(=O)O` (stereo not given), the TGI with CAKI-1 renal, in the experiment on T-47D breast, with SK-MEL-2 melanoma, with ACHN renal, in the experiment on MOLT-4 leukemia and in the experiment with MDA-MB-435 was more than 100 µM each time. In addition, the TGI in the experiment on DU-145 prostate, in the experiment with EKVX NSCLC and with K-562 leukemia was more than 100 µM each time.

As to `COc1ccc(OC)c([N+](=O)[O-])c1-c1nc2sc(C)cn2c1/C=N/N=C(N)N`, the TGI was 84.1 µM in the experiment with CAKI-1 renal; 60.2 µM in the experiment with SK-MEL-2 melanoma; more than 100 µM in the experiment on ACHN renal; 56.7 µM in the experiment on MDA-MB-435; more than 100 µM in the experiment on DU-145 prostate; more than 100 µM with EKVX NSCLC. Further, in the experiment with K-562 leukemia, the TGI was 28.7 µM.

On to `O=c1[nH]c(=O)c2c([nH]1)[nH]c1ccccc12`, for which the TGI in the experiment on CAKI-1 renal, with T-47D breast, in the experiment on SK-MEL-2 melanoma, in the experiment with ACHN renal, with MOLT-4 leukemia and in the experiment with MDA-MB-435 was more than 100 µM in each case. The TGI in the experiment with DU-145 prostate, in the experiment with EKVX NSCLC and with K-562 leukemia was more than 100 µM each time.

For the compound `C[C@@H]1CC(=O)[C@@]2(C)[C@](O)(CCC3O[C@]32C)[C@@]12CC(c1ccoc1)OC2=O` (stereo not given in full), the TGI with CAKI-1 renal is more than 100 µM; with T-47D breast, more than 100 µM; in the experiment on SK-MEL-2 melanoma, more than 100 µM; in the experiment on ACHN renal it was more than 100 µM; with MOLT-4 leukemia, 58.5 µM; with MDA-MB-435 it was more than 100 µM. Further, the TGI in the experiment on DU-145 prostate, in the experiment with EKVX NSCLC and in the experiment on K-562 leukemia was more than 100 µM each time.

With `CCOC(=O)N1c2c(c3ccccc3n2C(=O)OCC)C(=O)C(OC)N1C(=O)OCC` (stereo not given), the TGI was 93.9 µM in the experiment with CAKI-1 renal; 36.4 µM in the experiment on SK-MEL-2 melanoma; 92.7 µM with ACHN renal; 50.8 µM with MOLT-4 leukemia; more than 100 µM in the experiment with MDA-MB-435; more than 100 µM with DU-145 prostate. Further, the TGI with EKVX NSCLC and with K-562 leukemia was more than 100 µM throughout.

In the case of `S=C1NNC(=S)NN1`, the TGI was 0.475 µM in the experiment with CAKI-1 renal; more than 1 µM in the experiment with T-47D breast; more than 1 µM in the experiment on SK-MEL-2 melanoma; more than 1 µM with ACHN renal; 0.898 µM in the experiment on MOLT-4 leukemia; more than 1 µM with DU-145 prostate. In addition, the TGI with EKVX NSCLC is more than 1 µM; in the experiment with K-562 leukemia it was 0.478 µM.

`COc1ccc(-c2nc3ncccn3c2-c2ccc(S(C)(=O)=O)cc2)cc1`: the TGI was 68.7 µM in the experiment on CAKI-1 renal; more than 100 µM in the experiment with SK-MEL-2 melanoma; more than 100 µM with ACHN renal; more than 100 µM in the experiment on MOLT-4 leukemia; more than 100 µM in the experiment on MDA-MB-435; more than 100 µM in the experiment with DU-145 prostate. In addition, the TGI in the experiment with K-562 leukemia was more than 100 µM.

As for `CC(=O)OC1COC(n2c(N)c(C#N)c(-c3ccccc3)c(C#N)c2=S)C(OC(C)=O)C1OC(C)=O` (stereo not given), the TGI with CAKI-1 renal was more than 100 µM; with T-47D breast, more than 100 µM; with SK-MEL-2 melanoma, > 100 µM and 68.4 µM; in the experiment on ACHN renal it was more than 100 µM; in the experiment on MOLT-4 leukemia it was 54.3 µM and 75.4 µM; with MDA-MB-435, 93.6 µM and 61.2 µM. In addition, the TGI with DU-145 prostate and with EKVX NSCLC was more than 100 µM throughout.

As for `Fc1sc2c(c1F)C1CCC2C1` (stereo not given), the TGI was more than 100 µM in the experiment on CAKI-1 renal; more than 100 µM with T-47D breast; more than 100 µM with SK-MEL-2 melanoma; more than 100 µM in the experiment with ACHN renal; 86.8 µM in the experiment on MOLT-4 leukemia; more than 100 µM in the experiment on MDA-MB-435. In addition, the TGI in the experiment with DU-145 prostate and with EKVX NSCLC was more than 100 µM throughout.
